{
  "source": "ChEMBL document CHEMBL3774317",
  "about": "“Design and synthesis of novel tamoxifen analogues that avoid CYP2D6 metabolism” (Eur J Med Chem, 2016)",
  "format_in_all_cases": "functional",
  "key": {"ACHN [1]": {"system": "ACHN", "assay": "Cytotoxicity against human ACHN cells assessed as cell growth at 10^-7 M after 48 hrs by SRB assay", "details": "read-out: Activity"}, "MCF7 [2]": {"system": "MCF7", "assay": "Cytotoxicity against human MCF7 cells assessed as cell growth at 10^-7 M after 48 hrs by SRB assay", "details": "MCF7, 48 h, read-out: Activity"}, "NCI-H226": {"system": "NCI-H226", "assay": "Cytotoxicity against human NCI-H226 cells assessed as cell growth at 10^-6 M after 48 hrs by SRB assay", "details": "NCI-H226, 48 h, read-out: Activity"}, "[3]": {"assay": "Cytotoxicity against human HCT116 cells assessed as cell growth at 10^-6 M after 48 hrs by SRB assay", "details": "HCT-116, 48 h, read-out: Activity"}, "ACHN [4]": {"system": "ACHN", "assay": "Cytotoxicity against human ACHN cells assessed as cell growth at 10^-4 M after 48 hrs by SRB assay", "details": "read-out: Activity"}, "[5]": {"assay": "Cytotoxicity against human PC3 cells assessed as cell growth at 10^-4 M after 48 hrs by SRB assay", "details": "PC-3, 48 h, read-out: Activity"}, "A549": {"system": "A549", "assay": "Cytotoxicity against human A549 cells assessed as cell growth at 10^-8 M after 48 hrs by SRB assay", "details": "A549, 48 h, read-out: Activity"}, "EKVX": {"system": "EKVX", "assay": "Cytotoxicity against human EKVX cells assessed as cell growth at 10^-8 M after 48 hrs by SRB assay", "details": "read-out: Activity"}, "[6]": {"assay": "Cytotoxicity against human OVCAR4 cells assessed as cell growth at 10^-6 M after 48 hrs by SRB assay", "details": "OVCAR-4, 48 h, read-out: Activity"}, "[7]": {"assay": "Cytotoxicity against human OVCAR8 cells assessed as cell growth at 10^-6 M after 48 hrs by SRB assay", "details": "OVCAR-8, 48 h, read-out: Activity"}, "[8]": {"assay": "Cytotoxicity against human NCI-ADR-RES cells assessed as cell growth at 10^-6 M after 48 hrs by SRB assay", "details": "read-out: Activity"}, "ACHN [9]": {"system": "ACHN", "assay": "Cytotoxicity against human ACHN cells assessed as cell growth at 10^-6 M after 48 hrs by SRB assay", "details": "read-out: Activity"}, "MCF7 [10]": {"system": "MCF7", "assay": "Cytotoxicity against human MCF7 cells assessed as cell growth at 10^-6 M after 48 hrs by SRB assay", "details": "MCF7, 48 h, read-out: Activity"}, "[11]": {"assay": "Cytotoxicity against human COLO205 cells assessed as cell growth at 10^-5 M after 48 hrs by SRB assay", "details": "COLO 205, 48 h, read-out: Activity"}, "[12]": {"assay": "Cytotoxicity against human OVCAR3 cells assessed as cell growth at 10^-8 M after 48 hrs by SRB assay", "details": "OVCAR-3, 48 h, read-out: Activity"}, "786-0 [13]": {"system": "786-0", "assay": "Cytotoxicity against human 786-0 cells assessed as cell growth at 10^-8 M after 48 hrs by SRB assay", "details": "786-0, 48 h, read-out: Activity"}, "[14]": {"assay": "Cytotoxicity against human BT549 cells assessed as cell growth at 10^-8 M after 48 hrs by SRB assay", "details": "BT-549, 48 h, read-out: Activity"}, "[15]": {"assay": "Cytotoxicity against human OVCAR3 cells assessed as cell growth at 10^-5 M after 48 hrs by SRB assay", "details": "OVCAR-3, 48 h, read-out: Activity"}, "786-0 [16]": {"system": "786-0", "assay": "Cytotoxicity against human 786-0 cells assessed as cell growth at 10^-5 M after 48 hrs by SRB assay", "details": "786-0, 48 h, read-out: Activity"}, "[17]": {"assay": "Cytotoxicity against human TK10 cells assessed as cell growth at 10^-5 M after 48 hrs by SRB assay", "details": "TK-10, 48 h, read-out: Activity"}, "[18]": {"assay": "Cytotoxicity against human IGROV1 cells assessed as cell growth at 10^-4 M after 48 hrs by SRB assay", "details": "IGROV-1, 48 h, read-out: Activity"}, "MDA-MB-468": {"system": "MDA-MB-468", "assay": "Cytotoxicity against human MDA-MB-468 cells assessed as cell growth at 5 nM after 48 hrs by SRB assay", "details": "MDA-MB-468, 48 h, read-out: Activity"}, "NCI-H322M": {"system": "NCI-H322M", "assay": "Cytotoxicity against human NCI-H322M cells assessed as cell growth at 50 nM after 48 hrs by SRB assay", "details": "read-out: Activity"}, "[19]": {"assay": "Cytotoxicity against human UACC257 cells assessed as cell growth at 50 nM after 48 hrs by SRB assay", "details": "UACC-257, 48 h, read-out: Activity"}, "[20]": {"assay": "Cytotoxicity against human Hs 578T cells assessed as cell growth at 50 nM after 48 hrs by SRB assay", "details": "read-out: Activity"}, "[21]": {"assay": "Cytotoxicity against human UACC257 cells assessed as cell growth at 50 uM after 48 hrs by SRB assay", "details": "UACC-257, 48 h, read-out: Activity"}, "[22]": {"assay": "Cytotoxicity against human RXF393 cells assessed as cell growth at 50 uM after 48 hrs by SRB assay", "details": "RXF 393, 48 h, read-out: Activity"}, "[23]": {"assay": "Cytotoxicity against human HOP92 cells assessed as cell growth at 0.5 uM after 48 hrs by SRB assay", "details": "HOP-92, 48 h, read-out: Activity"}, "[24]": {"assay": "Cytotoxicity against human SW620 cells assessed as cell growth at 0.5 uM after 48 hrs by SRB assay", "details": "SW-620, 48 h, read-out: Activity"}, "[25]": {"assay": "Cytotoxicity against human SKOV3 cells assessed as cell growth at 0.5 uM after 48 hrs by SRB assay", "details": "SK-OV-3, 48 h, read-out: Activity"}, "[26]": {"assay": "Cytotoxicity against human MOLT4 cells assessed as cell growth at 5 uM after 48 hrs by SRB assay", "details": "MOLT-4, 48 h, read-out: Activity"}, "NCI-H522": {"system": "NCI-H522", "assay": "Cytotoxicity against human NCI-H522 cells assessed as cell growth at 5 nM after 48 hrs by SRB assay", "details": "NCI-H522, 48 h, read-out: Activity"}, "KM12": {"system": "KM12", "assay": "Cytotoxicity against human KM12 cells assessed as cell growth at 5 nM after 48 hrs by SRB assay", "details": "KM12, 48 h, read-out: Activity"}, "MDA-MB-435": {"system": "MDA-MB-435", "assay": "Cytotoxicity against human MDA-MB-435 cells assessed as cell growth at 5 nM after 48 hrs by SRB assay", "details": "MDA-MB-435, 48 h, read-out: Activity"}, "[27]": {"assay": "Cytotoxicity against human OVCAR3 cells assessed as cell growth at 5 nM after 48 hrs by SRB assay", "details": "OVCAR-3, 48 h, read-out: Activity"}, "[28]": {"assay": "Cytotoxicity against human BT549 cells assessed as cell growth at 5 nM after 48 hrs by SRB assay", "details": "BT-549, 48 h, read-out: Activity"}, "[29]": {"assay": "Cytotoxicity against human SNB19 cells assessed as cell growth at 5 uM after 48 hrs by SRB assay", "details": "SNB-19, 48 h, read-out: Activity"}, "[30]": {"assay": "Cytotoxicity against human UACC62 cells assessed as cell growth at 5 uM after 48 hrs by SRB assay", "details": "UACC-62, 48 h, read-out: Activity"}, "[31]": {"assay": "Cytotoxicity against human OVCAR8 cells assessed as cell growth at 5 uM after 48 hrs by SRB assay", "details": "OVCAR-8, 48 h, read-out: Activity"}, "A498": {"system": "A498", "assay": "Cytotoxicity against human A498 cells assessed as cell growth at 5 uM after 48 hrs by SRB assay", "details": "A498, 48 h, read-out: Activity"}, "[32]": {"assay": "Cytotoxicity against human UO31 cells assessed as cell growth at 5 uM after 48 hrs by SRB assay", "details": "UO-31, 48 h, read-out: Activity"}, "CCRF-CEM": {"system": "CCRF-CEM", "assay": "Cytotoxicity against human CCRF-CEM cells assessed as cell growth at 50 uM after 48 hrs by SRB assay", "details": "read-out: Activity"}},
  "data": [
    {"molecule": "C/C(=C(/c1ccc(O)cc1)c1ccc(OCCN2CCCC2)cc1)c1ccccc1", "values": [
      {"measurement": "growth at 0.1 µM", "setting": "ACHN [1]", "result": 97, "unit": "%"},
      {"measurement": "growth at 0.1 µM", "setting": "MCF7 [2]", "result": 44, "unit": "%"},
      {"measurement": "growth at 1 µM", "setting": "NCI-H226", "result": 91, "unit": "%"},
      {"measurement": "growth at 1 µM", "setting": "[3]", "result": 93, "unit": "%"},
      {"measurement": "growth at 100 µM", "setting": "ACHN [4]", "result": -91, "unit": "%"},
      {"measurement": "growth at 100 µM", "setting": "[5]", "result": -96, "unit": "%"},
      {"measurement": "growth at 0.01 µM", "setting": "A549", "result": 99, "unit": "%"},
      {"measurement": "growth at 0.01 µM", "setting": "EKVX", "result": 91, "unit": "%"},
      {"measurement": "growth at 1 µM", "setting": "[6]", "result": 89, "unit": "%"},
      {"measurement": "growth at 1 µM", "setting": "[7]", "result": 98, "unit": "%"},
      {"measurement": "growth at 1 µM", "setting": "[8]", "result": 91, "unit": "%"},
      {"measurement": "growth at 1 µM", "setting": "ACHN [9]", "result": 93, "unit": "%"},
      {"measurement": "growth at 1 µM", "setting": "MCF7 [10]", "result": 36, "unit": "%"},
      {"measurement": "growth at 10 µM", "setting": "[11]", "result": -79, "unit": "%"},
      {"measurement": "growth at 0.01 µM", "setting": "[12]", "result": 106, "unit": "%"},
      {"measurement": "growth at 0.01 µM", "setting": "786-0 [13]", "result": 97, "unit": "%"},
      {"measurement": "growth at 0.01 µM", "setting": "[14]", "result": 96, "unit": "%"},
      {"measurement": "growth at 10 µM", "setting": "[15]", "result": 35, "unit": "%"},
      {"measurement": "growth at 10 µM", "setting": "786-0 [16]", "result": -57, "unit": "%"},
      {"measurement": "growth at 10 µM", "setting": "[17]", "result": 27, "unit": "%"},
      {"measurement": "growth at 100 µM", "setting": "[18]", "result": -54, "unit": "%"}
    ]},
    {"molecule": "CCCCCCCCCC(=O)Oc1ccc(/C(=C(/C)c2ccccc2)c2ccc(OCCN3CCCC3)cc2)cc1", "values": [
      {"measurement": "growth at 0.005 µM", "setting": "MDA-MB-468", "result": 96, "unit": "%"},
      {"measurement": "growth at 0.05 µM", "setting": "NCI-H322M", "result": 93, "unit": "%"},
      {"measurement": "growth at 0.05 µM", "setting": "[19]", "result": 102, "unit": "%"},
      {"measurement": "growth at 0.05 µM", "setting": "[20]", "result": 92, "unit": "%"},
      {"measurement": "growth at 50 µM", "setting": "[21]", "result": -91, "unit": "%"},
      {"measurement": "growth at 50 µM", "setting": "[22]", "result": -89, "unit": "%"},
      {"measurement": "growth at 0.5 µM", "setting": "[23]", "result": 64, "unit": "%"},
      {"measurement": "growth at 0.5 µM", "setting": "[24]", "result": 88, "unit": "%"},
      {"measurement": "growth at 0.5 µM", "setting": "[25]", "result": 83, "unit": "%"},
      {"measurement": "growth at 5 µM", "setting": "[26]", "result": 82, "unit": "%"},
      {"measurement": "growth at 0.005 µM", "setting": "NCI-H522", "result": 101, "unit": "%"},
      {"measurement": "growth at 0.005 µM", "setting": "KM12", "result": 101, "unit": "%"},
      {"measurement": "growth at 0.005 µM", "setting": "MDA-MB-435", "result": 99, "unit": "%"},
      {"measurement": "growth at 0.005 µM", "setting": "[27]", "result": 108, "unit": "%"},
      {"measurement": "growth at 0.005 µM", "setting": "[28]", "result": 100, "unit": "%"},
      {"measurement": "growth at 5 µM", "setting": "[29]", "result": 94, "unit": "%"},
      {"measurement": "growth at 5 µM", "setting": "[30]", "result": 100, "unit": "%"},
      {"measurement": "growth at 5 µM", "setting": "[31]", "result": 95, "unit": "%"},
      {"measurement": "growth at 5 µM", "setting": "A498", "result": 64, "unit": "%"},
      {"measurement": "growth at 5 µM", "setting": "[32]", "result": 70, "unit": "%"},
      {"measurement": "growth at 50 µM", "setting": "CCRF-CEM", "result": -47, "unit": "%"}
    ]}
  ]
}
